Results: PMC7377239, “Cardiovascular Effects of Polychlorinated Biphenyls and Their Major Metabolites” (Environmental Health Perspectives, 2020)
Counter-ions that a name gives are not always drawn. Like-named read-outs stand apart in the source and are kept apart here.

Test system: iCell cardiomyocytes (human iPSC-derived cardiomyocytes)
Test: High-content imaging of cytotoxicity and mitochondrial integrity in iPSC-CMs
Format: cell-based
Conditions: Homo sapiens; for viability at 0.01 µM / activity at 0.01 µM / viability at 0.1 µM / activity at 0.1 µM / viability at 1 µM / activity at 1 µM / viability at 10 µM / activity at 10 µM / viability at 100 µM / activity at 100 µM: 0.00 µM = 100.00; for viability at 0.1 µM / activity at 0.1 µM: 0.10 µM
Method in brief: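 This assay measured cytotoxicity and mitochondrial integrity in iPSC cardiomyocytes held in 40μL maintenance medium. After compound exposure, a 2× staining solution with Hoechst 33342 (4μg/mL) and MitoTracker™ Orange (0.4μM) was applied for 15 min at 37°C. Cells were washed, fixed with 3.7% formaldehyde, imaged on DAPI and Cy3 channels, and scored in MetaXpress®.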

[1] = Cardiomyocyte, 1.5 h, cardiomyocytes (cm), cam, 90 min, read-out: POD cm.cam.90min
[2] = Cardiomyocyte, 1.5 h, cardiomyocytes (cm), mii, 90 min, read-out: POD cm.mii.90min
[3] = Cardiomyocyte, 1.5 h, cardiomyocytes (cm), mito, 90 min, read-out: POD cm.mito.90min
[4] = Cardiomyocyte, 1.5 h, cardiomyocytes (cm), tc, 90 min, read-out: POD cm.tc.90min
[5] = Cardiomyocyte, 24 h, cardiomyocytes (cm), cam, 24 hrs, read-out: POD cm.cam.24hrs
[6] = Cardiomyocyte, 24 h, cardiomyocytes (cm), mii, 24 hrs, read-out: POD cm.mii.24hrs
[7] = Cardiomyocyte, 24 h, cardiomyocytes (cm), mito, 24 hrs, read-out: POD cm.mito.24hrs
[8] = Cardiomyocyte, 24 h, cardiomyocytes (cm), tc, 24 hrs, read-out: POD cm.tc.24hrs
[9] = Cardiomyocyte, 1.5 h, read-out: cm.cam.90min
[10] = Cardiomyocyte, 1.5 h, read-out: cm.mii.90min
[11] = Cardiomyocyte, 1.5 h, read-out: cm.mito.90min
[12] = Cardiomyocyte, 1.5 h, read-out: cm.tc.90min
[13] = Cardiomyocyte, 24 h, read-out: cm.cam.24hrs
[14] = Cardiomyocyte, 24 h, read-out: cm.mii.24hrs
[15] = Cardiomyocyte, 24 h, read-out: cm.mito.24hrs
[16] = Cardiomyocyte, 24 h, read-out: cm.tc.24hrs
[17] = iPSC-CM, 1.5 h, iPSC-CM, read-out: cm.cam.90min POD
[18] = iPSC-CM, 1.5 h, iPSC-CM, read-out: cm.mii.90min POD
[19] = iPSC-CM, 1.5 h, iPSC-CM, read-out: cm.mito.90min POD
[20] = iPSC-CM, 1.5 h, iPSC-CM, read-out: cm.tc.90min POD
[21] = iPSC-CM, 24 h, iPSC-CM, read-out: cm.cam.24hrs POD
[22] = iPSC-CM, 24 h, iPSC-CM, read-out: cm.mii.24hrs POD
[23] = iPSC-CM, 24 h, iPSC-CM, read-out: cm.mito.24hrs POD
[24] = iPSC-CM, 24 h, iPSC-CM, read-out: cm.tc.24hrs POD

With Oc1ccccc1-c1ccc(Cl)cc1 [2'-OH-PCB 3] the minimal effective concentration [1] was 32.8 µM, the minimal effective concentration [2] was 9.15 µM and the minimal effective concentration [3] was 41.4 µM. The minimal effective concentration [4] was 34.5 µM, the minimal effective concentration [5] was 40.4 µM and the minimal effective concentration [6] was 6.56 µM. It also gave a minimal effective concentration [7] of 29.8 µM and a minimal effective concentration [8] of 35.9 µM.

With O=S(=O)(O)Oc1ccc(-c2ccc(Cl)cc2)cc1 [4'-yl PCB 3 sulfate] the viability at 0.01 µM [9] was 90.6%, the activity at 0.01 µM [10] was 111% and the activity at 0.01 µM [11] was 90.4%. It also gave a viability at 0.01 µM [12] of 90.5%, a viability at 0.1 µM [9] of 97.2% and an activity at 0.1 µM [10] of 109%. For the same compound, the activity at 0.1 µM [11] was 97.2%, the viability at 0.1 µM [12] was 97.5% and the viability at 1 µM [9] was 101%. It also gave an activity at 1 µM [10] of 109%, an activity at 1 µM [11] of 101% and a viability at 1 µM [12] of 102%. It also gave a viability at 10 µM [9] of 102%, an activity at 10 µM [10] of 107% and an activity at 10 µM [11] of 102%. The viability at 10 µM [12] was 102%, the viability at 100 µM [9] was 96.5% and the activity at 100 µM [10] was 113%. It also gave an activity at 100 µM [11] of 96.7%, a viability at 100 µM [12] of 96.7% and a viability at 0.01 µM [13] of 97.3%. The activity at 0.01 µM [14] was 98.4%, the activity at 0.01 µM [15] was 95.5% and the viability at 0.01 µM [16] was 97.4%. It also gave a viability at 0.1 µM [13] of 105%, an activity at 0.1 µM [14] of 111% and an activity at 0.1 µM [15] of 106%. The viability at 0.1 µM [16] was 106%, the viability at 1 µM [13] was 107% and the activity at 1 µM [14] was 98.9%. For the same compound, the activity at 1 µM [15] was 108%, the viability at 1 µM [16] was 107% and the viability at 10 µM [13] was 102%. For the same compound, the activity at 10 µM [14] was 92%, the activity at 10 µM [15] was 101% and the viability at 10 µM [16] was 102%. It also gave a viability at 100 µM [13] of 104%, an activity at 100 µM [14] of 82.3% and an activity at 100 µM [15] of 103%. It also gave a viability at 100 µM [16] of 105%, a minimal effective concentration [17] of 100 µM and a minimal effective concentration [18] of 100 µM. For the same compound, the minimal effective concentration [19] was 100 µM, the minimal effective concentration [20] was 100 µM and the minimal effective concentration [21] was 100 µM. For the same compound, the minimal effective concentration [22] was 53.5 µM, the minimal effective concentration [23] was 100 µM and the minimal effective concentration [24] was 100 µM.

In the case of O=C1C=CC(=O)C(c2ccc(Cl)cc2)=C1 [4-Cl-BQ, 2-(4-Chlorophenyl)benzo-2,5-quinone], the viability at 0.01 µM [9] is reported as 103%, the activity at 0.01 µM [10] is reported as 106% and the activity at 0.01 µM [11] is reported as 103%. The viability at 0.01 µM [12] was 103%, the viability at 0.1 µM [9] was 96.5% and the activity at 0.1 µM [10] was 116%. It also gave an activity at 0.1 µM [11] of 95.9%, a viability at 0.1 µM [12] of 96.2% and a viability at 1 µM [9] of 100%. It also gave an activity at 1 µM [10] of 117%, an activity at 1 µM [11] of 100% and a viability at 1 µM [12] of 100%. It also gave a viability at 10 µM [9] of 103%, an activity at 10 µM [10] of 91.5% and an activity at 10 µM [11] of 102%. For the same compound, the viability at 10 µM [12] was 103%, the viability at 100 µM [9] was 29.9% and the activity at 100 µM [10] was 8.08%. The activity at 100 µM [11] was 0.09%, the viability at 100 µM [12] was 100% and the minimal effective concentration [1] was 37.6 µM. The minimal effective concentration [2] was 9.33 µM, the minimal effective concentration [3] was 38.7 µM and the minimal effective concentration [4] was 100 µM. It also gave a viability at 0.01 µM [13] of 92.6%, an activity at 0.01 µM [14] of 100% and an activity at 0.01 µM [15] of 89.4%. It also gave a viability at 0.01 µM [16] of 92.8%, a viability at 0.1 µM [13] of 98.4% and an activity at 0.1 µM [14] of 110%. For the same compound, the activity at 0.1 µM [15] was 96.5%, the viability at 0.1 µM [16] was 99.1% and the viability at 1 µM [13] was 105%. For the same compound, the activity at 1 µM [14] was 97.3%, the activity at 1 µM [15] was 103% and the viability at 1 µM [16] was 105%. For the same compound, the viability at 10 µM [13] was 51.1%, the activity at 10 µM [14] was 128% and the activity at 10 µM [15] was 50.9%. It also gave a viability at 10 µM [16] of 50.4%, a viability at 100 µM [13] of 66.6% and an activity at 100 µM [14] of 0.9%. For the same compound, the activity at 100 µM [15] was 0.05%, the viability at 100 µM [16] was 100% and the minimal effective concentration [5] was 0.06 µM. For the same compound, the minimal effective concentration [6] was 46.4 µM, the minimal effective concentration [7] was 3.85 µM and the minimal effective concentration [8] was 100 µM. The minimal effective concentration [17] was 37.6 µM, the minimal effective concentration [18] was 9.33 µM and the minimal effective concentration [19] was 38.7 µM. It also gave a minimal effective concentration [20] of 100 µM, a minimal effective concentration [21] of 0.06 µM and a minimal effective concentration [22] of 46.4 µM. For the same compound, the minimal effective concentration [23] was 3.85 µM and the minimal effective concentration [24] was 100 µM.
